What all share (format): cell-based
Assay [1] concerns Acinetobacter baumannii ATCC 17978. The note with it: ATCC 17978. The gist of the method:
(§1)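 The read-out is the MIC, obtained by CLSI broth microdilution (M100-S24) in cation-adjusted Mueller-Hinton broth. The compounds were lipopeptide TFA salts, and polymyxin B sulphate served as control.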

Assay [2] relates to Acinetobacter baumannii FADDI-AB034. Conditions: FADDI-AB034. The gist of the method:
as §1

In assay [3] the test system is Enterobacter cloacae FADDI-EC001. Conditions: FADDI-EC001. The gist of the method: (§2)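 Broth microdilution, CAMHB, per CLSI M100-S24; lipopeptides as TFA salts; polymyxin B sulphate control. Read-out: MIC. Strains are polymyxin-susceptible; PA022 and AB034 are MDR clinical isolates.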
Assay [4] has as its system Enterobacter cloacae FADDI-EC003. The note with it: FADDI-EC003. The gist of the method:
as §1

Assay [5] deals with Enterobacter cloacae FADDI-EC006. The note with it: FADDI-EC006. The gist of the method:
as §1

The test system of assay [6] is Klebsiella pneumoniae FADDI-KP022. Conditions: FADDI-KP022. The gist of the method:
as §1

The subject of assay [7] is Klebsiella pneumoniae FADDI-KP032. The note with it: FADDI-KP032. The gist of the method:
as §1

The subject of assay [8] is Klebsiella pneumoniae Kp BM1. The note with it: Kp BM1. The gist of the method:
as §2

The test system of assay [9] is Pseudomonas aeruginosa ATCC 27853. Conditions: ATCC 27853. The gist of the method: as §1
Assay [10] concerns Pseudomonas aeruginosa FADDI-PA01. Conditions: FADDI-. The gist of the method: as §1
Assay [11] concerns Pseudomonas aeruginosa FADDI-PA022. The note with it: FADDI-PA022. The gist of the method:
as §1

Assay [12] relates to Pseudomonas aeruginosa FADDI-PA038. The note with it: FADDI-PA038. The gist of the method: as §1
In assay [13] the test system is Acinetobacter baumannii FADDI-AB030. As to the kind of experiment: microbe, parasite or virus in culture. Conditions: FADDI-AB030. The gist of the method: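 Broth microdilution MIC in cation-adjusted Mueller-Hinton broth per CLSI M100-S24; lipopeptides tested as TFA salts. FADDI-AB030 is a multidrug-resistant clinical isolate. Polymyxin B sulphate served as control.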

Values after ≈ are worked out from the molar mass of the structure shown. Where a SMILES comes first, the peptide text is derived from it. Bridges are numbered along the chain shown (N, C = ends). [ ]: non-standard residue; d: D form. The star is where a group is joined. Benzofuran(2-CO) = O=C(c1cc2ccccc2o1)*; X35 = O=C(c1cc(-c2ccc(Cl)cc2)on1)*; X38 = O=C(c1cc2sccc2[nH]1)*; dNle = CCCC[C@@H](N)C(=O)O; X29 = O=C(c1cc(Cl)ccn1)*; X59 = Cn1c(Br)ccc1C(=O)*; Dab = NCC[C@H](N)C(=O)O; X60 = O=C(c1cnc(Br)s1)*; Abu = CC[C@H](N)C(=O)O; Dap = NC[C@H](N)C(=O)O; X71 = O=C(c1sccc1Cl)*

`CC[C@@H]1NC(=O)[C@@H](CC(C)C)NC(=O)[C@H](CCN)NC(=O)[C@@H](NC(=O)[C@H](CN)NC(=O)[C@@H](NC(=O)[C@H](CCN)NC(=O)c2sccc2Cl)[C@@H](C)O)CCNC(=O)[C@H]([C@@H](C)O)NC(=O)[C@H](CCN)NC(=O)[C@H](CCN)NC1=O` [Compound 89] (X71-[Dab]T[Dap][Dab][Dab][dL][Abu][Dab][Dab]T; lactam 4-C): the Minimum inhibitory concentration was 4 µg/mL (≈ 3.53 µM) in assay [1]; 4 µg/mL (≈ 3.53 µM) in [2]; less than 0.125 µg/mL in assay [3]; less than 0.125 µg/mL in assay [4]; less than 0.125 µg/mL in assay [5]; less than 0.125 µg/mL in assay [6]. The Minimum inhibitory concentration in assay [7] is 0.25 µg/mL (≈ 0.221 µM); in assay [8], less than 0.125 µg/mL; in assay [9] it was 0.25 µg/mL (≈ 0.221 µM); in assay [10], 0.25 µg/mL (≈ 0.221 µM); in assay [11], 0.25 µg/mL (≈ 0.221 µM); in [12] it was 1 µg/mL (≈ 0.884 µM). This compound also yielded a Minimum inhibitory concentration in assay [13] of 2 µg/mL (≈ 1.77 µM).

As to `CC[C@@H]1NC(=O)[C@@H](CC(C)C)NC(=O)[C@H](CCN)NC(=O)[C@@H](NC(=O)[C@H](CN)NC(=O)[C@@H](NC(=O)[C@H](CCN)NC(=O)c2cc3sccc3[nH]2)[C@@H](C)O)CCNC(=O)[C@H]([C@@H](C)O)NC(=O)[C@H](CCN)NC(=O)[C@H](CCN)NC1=O` [Compound 90] (X38-[Dab]T[Dap][Dab][Dab][dL][Abu][Dab][Dab]T; lactam 4-C), the Minimum inhibitory concentration is 2 µg/mL (≈ 1.76 µM) in assay [1]; 1 µg/mL (≈ 0.88 µM) in [2]; less than 0.125 µg/mL in assay [3]; less than 0.125 µg/mL in assay [4]; 0.5 µg/mL (≈ 0.44 µM) in assay [5]; less than 0.125 µg/mL in [6]. The Minimum inhibitory concentration in assay [7] was 0.25 µg/mL (≈ 0.22 µM); in assay [8], 0.25 µg/mL (≈ 0.22 µM); in [9], 0.5 µg/mL (≈ 0.44 µM); in [10] it was 0.25 µg/mL (≈ 0.22 µM); in [11], 0.5 µg/mL (≈ 0.44 µM); in [12], 0.5 µg/mL (≈ 0.44 µM). The compound further registered a Minimum inhibitory concentration in assay [13] of 0.5 µg/mL (≈ 0.44 µM).

On to `CC[C@@H]1NC(=O)[C@@H](CC(C)C)NC(=O)[C@H](CCN)NC(=O)[C@@H](NC(=O)[C@H](CN)NC(=O)[C@@H](NC(=O)[C@H](CCN)NC(=O)c2cnc(Br)s2)[C@@H](C)O)CCNC(=O)[C@H]([C@@H](C)O)NC(=O)[C@H](CCN)NC(=O)[C@H](CCN)NC1=O` [Compound 91] (X60-[Dab]T[Dap][Dab][Dab][dL][Abu][Dab][Dab]T; lactam 4-C), for which the Minimum inhibitory concentration in assay [1] was 2 µg/mL (≈ 1.7 µM); in assay [2] it was 2 µg/mL (≈ 1.7 µM); in [3], 0.5 µg/mL (≈ 0.425 µM); in [4], 1 µg/mL (≈ 0.849 µM); in [5], 0.5 µg/mL (≈ 0.425 µM); in assay [6], less than 0.125 µg/mL. Also, the Minimum inhibitory concentration in assay [7] was found to be 0.5 µg/mL (≈ 0.425 µM); in assay [8], 0.5 µg/mL (≈ 0.425 µM); in [9], 0.5 µg/mL (≈ 0.425 µM); in assay [10], 0.5 µg/mL (≈ 0.425 µM); in assay [11] it was 0.5 µg/mL (≈ 0.425 µM); in assay [12] it was 1 µg/mL (≈ 0.849 µM). Further, in [13], the Minimum inhibitory concentration is 1 µg/mL (≈ 0.849 µM).

Turning to `CC[C@@H]1NC(=O)[C@@H](CC(C)C)NC(=O)[C@H](CCN)NC(=O)[C@@H](NC(=O)[C@H](CN)NC(=O)[C@@H](NC(=O)[C@H](CCN)NC(=O)c2cc3ccccc3o2)[C@@H](C)O)CCNC(=O)[C@H]([C@@H](C)O)NC(=O)[C@H](CCN)NC(=O)[C@H](CCN)NC1=O` [Compound 92] ({Benzofuran(2-CO)}-[Dab]T[Dap][Dab][Dab][dL][Abu][Dab][Dab]T; lactam 4-C), the Minimum inhibitory concentration in assay [1] is 1 µg/mL (≈ 0.884 µM); in assay [2] it was 0.5 µg/mL (≈ 0.442 µM); in assay [3] it was less than 0.125 µg/mL; in assay [4], 0.25 µg/mL (≈ 0.221 µM); in [5] it was less than 0.125 µg/mL; in [6] it was less than 0.125 µg/mL. Further, the Minimum inhibitory concentration in assay [7], in assay [8], in [9], in [10], in assay [11] and in [12] was 0.5 µg/mL (≈ 0.442 µM) each time. In [13], the Minimum inhibitory concentration was 0.5 µg/mL (≈ 0.442 µM).

For the compound `CC[C@@H]1NC(=O)[C@@H](CC(C)C)NC(=O)[C@H](CCN)NC(=O)[C@@H](NC(=O)[C@H](CN)NC(=O)[C@@H](NC(=O)[C@H](CCN)NC(=O)c2ccc(Br)n2C)[C@@H](C)O)CCNC(=O)[C@H]([C@@H](C)O)NC(=O)[C@H](CCN)NC(=O)[C@H](CCN)NC1=O` [Compound 93] (X59-[Dab]T[Dap][Dab][Dab][dL][Abu][Dab][Dab]T; lactam 4-C; N-terminus assumed), the Minimum inhibitory concentration was 2 µg/mL (≈ 1.7 µM) in assay [1]; 1 µg/mL (≈ 0.852 µM) in [2]; less than 0.125 µg/mL in assay [3]; 0.5 µg/mL (≈ 0.426 µM) in assay [4]; 0.25 µg/mL (≈ 0.213 µM) in assay [5]; less than 0.125 µg/mL in assay [6]. Further, the Minimum inhibitory concentration in assay [7] is 0.5 µg/mL (≈ 0.426 µM); in assay [8] it was 0.25 µg/mL (≈ 0.213 µM); in [9], 0.5 µg/mL (≈ 0.426 µM); in assay [10], 0.5 µg/mL (≈ 0.426 µM); in assay [11] it was 0.5 µg/mL (≈ 0.426 µM); in assay [12], 1 µg/mL (≈ 0.852 µM). In [13], this compound showed a Minimum inhibitory concentration of 0.5 µg/mL (≈ 0.426 µM).

With `CC[C@@H]1NC(=O)[C@@H](CC(C)C)NC(=O)[C@H](CCN)NC(=O)[C@@H](NC(=O)[C@H](CN)NC(=O)[C@@H](NC(=O)[C@H](CCN)NC(=O)c2cc(-c3ccc(Cl)cc3)on2)[C@@H](C)O)CCNC(=O)[C@H]([C@@H](C)O)NC(=O)[C@H](CCN)NC(=O)[C@H](CCN)NC1=O` [Compound 94] (X35-[Dab]T[Dap][Dab][Dab][dL][Abu][Dab][Dab]T; lactam 4-C), the Minimum inhibitory concentration in assay [1] was 1 µg/mL (≈ 0.838 µM); in assay [2], 0.5 µg/mL (≈ 0.419 µM); in assay [3], 0.25 µg/mL (≈ 0.21 µM); in [4] it was 0.25 µg/mL (≈ 0.21 µM); in assay [5] it was less than 0.125 µg/mL; in assay [6] it was less than 0.125 µg/mL. Moreover, the Minimum inhibitory concentration is less than 0.125 µg/mL in assay [7]; 0.5 µg/mL (≈ 0.419 µM) in assay [8]; 0.5 µg/mL (≈ 0.419 µM) in assay [9]; 0.5 µg/mL (≈ 0.419 µM) in [10]; 0.5 µg/mL (≈ 0.419 µM) in assay [11]; 1 µg/mL (≈ 0.838 µM) in assay [12]. In addition, the Minimum inhibitory concentration in assay [13] was found to be 0.25 µg/mL (≈ 0.21 µM).

In the case of `CCCC[C@H]1NC(=O)[C@H](CCN)NC(=O)[C@@H](NC(=O)[C@H](CN)NC(=O)[C@@H](NC(=O)[C@H](CCN)NC(=O)c2cc(Cl)ccn2)[C@@H](C)O)CCNC(=O)[C@H]([C@@H](C)O)NC(=O)[C@H](CCN)NC(=O)[C@H](CCN)NC(=O)[C@H](CC)NC1=O` [Compound 95] (X29-[Dab]T[Dap][Dab][Dab][dNle][Abu][Dab][Dab]T; lactam 4-C), the Minimum inhibitory concentration in assay [1] is 0.25 µg/mL (≈ 0.222 µM); in assay [2], 0.25 µg/mL (≈ 0.222 µM); in assay [3] it was less than 0.125 µg/mL; in assay [4], 0.25 µg/mL (≈ 0.222 µM); in assay [5], less than 0.125 µg/mL; in assay [6], 0.25 µg/mL (≈ 0.222 µM). The Minimum inhibitory concentration in assay [7] was less than 0.125 µg/mL; in assay [8], 0.5 µg/mL (≈ 0.444 µM); in assay [9] it was 0.25 µg/mL (≈ 0.222 µM); in assay [10], less than 0.125 µg/mL; in [11], 0.25 µg/mL (≈ 0.222 µM); in [12], 1 µg/mL (≈ 0.888 µM). In assay [13], this compound returned a Minimum inhibitory concentration of 0.25 µg/mL (≈ 0.222 µM).

The values above are taken from patent publication US11225505B2, “Antimicrobial polymyxin derivative compounds” (MONASH UNIVERSITY, priority 2015, dated 2022).
